From PubChem BioAssay (NCI)
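Interpolation was linear, between the two tested concentrations surrounding the appropriate level; five concentrations were tested over 48 hours in 96-well plates. TGI is the concentration that stops growth completely.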

What was measured:
Test in all cases: NCI anticancer screen, dose series, 48 h
786-0 renal = tested on: 786-0 renal
A549 NSCLC = tested on: A549 NSCLC
ACHN renal = tested on: ACHN renal
BT-549 breast = tested on: BT-549 breast
CAKI-1 renal = tested on: CAKI-1 renal
CCRF-CEM leukemia = tested on: CCRF-CEM leukemia
COLO 205 colon = tested on: COLO 205 colon
DU-145 prostate = tested on: DU-145 prostate
EKVX NSCLC = tested on: EKVX NSCLC
HCC-2998 colon = tested on: HCC-2998 colon
HCT-116 colon = tested on: HCT-116 colon
HCT-15 colon = tested on: HCT-15 colon
HL-60(TB) leukemia = tested on: HL-60(TB) leukemia
HOP-62 NSCLC = tested on: HOP-62 NSCLC
HOP-92 NSCLC = tested on: HOP-92 NSCLC
HS 578T breast = tested on: HS 578T breast
HT29 colon = tested on: HT29 colon
IGROV1 ovarian = tested on: IGROV1 ovarian
K-562 leukemia = tested on: K-562 leukemia
KM12 colon = tested on: KM12 colon
LOX IMVI melanoma = tested on: LOX IMVI melanoma
M14 melanoma = tested on: M14 melanoma
MALME-3M melanoma = tested on: MALME-3M melanoma
MCF7 breast = tested on: MCF7 breast
MDA-MB-231 breast = tested on: MDA-MB-231 breast
MDA-MB-435 = tested on: MDA-MB-435
MDA-N = tested on: MDA-N
MOLT-4 leukemia = tested on: MOLT-4 leukemia
NCI-H226 lung = tested on: NCI-H226 lung
NCI-H23 lung = tested on: NCI-H23 lung
NCI-H460 lung = tested on: NCI-H460 lung
NCI-H522 lung = tested on: NCI-H522 lung
NCI/ADR-RES ovarian = tested on: NCI/ADR-RES ovarian
OVCAR-3 ovarian = tested on: OVCAR-3 ovarian
OVCAR-4 ovarian = tested on: OVCAR-4 ovarian
OVCAR-5 ovarian = tested on: OVCAR-5 ovarian
OVCAR-8 ovarian = tested on: OVCAR-8 ovarian
PC-3 prostate = tested on: PC-3 prostate
RXF 393 renal = tested on: RXF 393 renal
SF-268 CNS = tested on: SF-268 CNS
SF-295 CNS = tested on: SF-295 CNS
SF-539 CNS = tested on: SF-539 CNS
SK-MEL-2 melanoma = tested on: SK-MEL-2 melanoma
SK-MEL-28 melanoma = tested on: SK-MEL-28 melanoma
SK-MEL-5 melanoma = tested on: SK-MEL-5 melanoma
SK-OV-3 ovarian = tested on: SK-OV-3 ovarian
SN12C renal = tested on: SN12C renal
SNB-19 CNS = tested on: SNB-19 CNS
SNB-75 CNS = tested on: SNB-75 CNS
SR leukemia = tested on: SR leukemia
SW-620 colon = tested on: SW-620 colon
T-47D breast = tested on: T-47D breast
TK-10 renal = tested on: TK-10 renal
U251 CNS = tested on: U251 CNS
UACC-257 melanoma = tested on: UACC-257 melanoma
UACC-62 melanoma = tested on: UACC-62 melanoma
UO-31 renal = tested on: UO-31 renal
A498 renal = tested on: A498 renal
RPMI-8226 leukemia = tested on: RPMI-8226 leukemia

Clc1ncc(C(Cl)(Cl)Cl)nc1-c1ccccc1
TGI (786-0 renal): 5.77 µM | TGI (A549 NSCLC): 22.5 µM | TGI (ACHN renal): 3.19 µM | TGI (BT-549 breast): 8.81 µM | TGI (CAKI-1 renal): 5.46 µM | TGI (CCRF-CEM leukemia): > 100 µM | TGI (COLO 205 colon): 4.11 µM | TGI (DU-145 prostate): 2.96 µM | TGI (EKVX NSCLC): 6.02 µM | TGI (HCC-2998 colon): 2.9 µM | TGI (HCT-116 colon): 3.52 µM | TGI (HCT-15 colon): 3.42 µM | TGI (HL-60(TB) leukemia): 6.41 µM | TGI (HOP-62 NSCLC): 6.08 µM | TGI (HOP-92 NSCLC): 4.5 µM | TGI (HS 578T breast): 6.95 µM | TGI (HT29 colon): 3.65 µM | TGI (IGROV1 ovarian): 8.05 µM | TGI (K-562 leukemia): 12.4 µM | TGI (KM12 colon): 3.43 µM | TGI (LOX IMVI melanoma): 15.4 µM | TGI (M14 melanoma): 5.88 µM | TGI (MALME-3M melanoma): 19.1 µM | TGI (MCF7 breast): 3.44 µM | TGI (MDA-MB-231 breast): 3.86 µM | TGI (MDA-MB-435): 3.54 µM | TGI (MDA-N): 3.82 µM | TGI (MOLT-4 leukemia): 28.9 µM | TGI (NCI-H226 lung): 39.4 µM | TGI (NCI-H23 lung): 6.07 µM | TGI (NCI-H460 lung): 11.3 µM | TGI (NCI-H522 lung): 6.72 µM | TGI (NCI/ADR-RES ovarian): 57.7 µM | TGI (OVCAR-3 ovarian): 3.1 µM | TGI (OVCAR-4 ovarian): 17 µM | TGI (OVCAR-5 ovarian): 30.9 µM | TGI (OVCAR-8 ovarian): 7.16 µM | TGI (PC-3 prostate): 3.38 µM | TGI (RXF 393 renal): 3.3 µM | TGI (SF-268 CNS): 5.09 µM | TGI (SF-295 CNS): 13.5 µM | TGI (SF-539 CNS): 5.05 µM | TGI (SK-MEL-2 melanoma): 5.04 µM | TGI (SK-MEL-28 melanoma): 60.6 µM | TGI (SK-MEL-5 melanoma): 26.4 µM | TGI (SK-OV-3 ovarian): 24.3 µM | TGI (SN12C renal): 8.57 µM | TGI (SNB-19 CNS): 3.19 µM | TGI (SNB-75 CNS): 6.24 µM | TGI (SR leukemia): 10.9 µM | TGI (SW-620 colon): > 100 µM | TGI (T-47D breast): 4.1 µM | TGI (TK-10 renal): 5.39 µM | TGI (U251 CNS): 3.3 µM | TGI (UACC-257 melanoma): 4.76 µM | TGI (UACC-62 melanoma): 7.27 µM | TGI (UO-31 renal): 3.34 µM

Cn1c(=O)c2[nH]c(N/N=C3/SCC(=O)N3Cc3ccccc3)nc2n(C)c1=O
TGI (786-0 renal): 88.4 µM | TGI (A498 renal): > 100 µM | TGI (A549 NSCLC): > 100 µM | TGI (ACHN renal): > 100 µM | TGI (BT-549 breast): > 100 µM | TGI (CAKI-1 renal): > 100 µM | TGI (CCRF-CEM leukemia): 62.9 µM | TGI (COLO 205 colon): > 100 µM | TGI (DU-145 prostate): > 100 µM | TGI (EKVX NSCLC): > 100 µM | TGI (HCC-2998 colon): > 100 µM | TGI (HCT-116 colon): > 100 µM | TGI (HCT-15 colon): > 100 µM | TGI (HL-60(TB) leukemia): > 100 µM | TGI (HOP-62 NSCLC): > 100 µM | TGI (HOP-92 NSCLC): 87.7 µM | TGI (HS 578T breast): > 100 µM | TGI (HT29 colon): > 100 µM | TGI (IGROV1 ovarian): > 100 µM | TGI (K-562 leukemia): > 100 µM | TGI (KM12 colon): > 100 µM | TGI (M14 melanoma): > 100 µM | TGI (MALME-3M melanoma): > 100 µM | TGI (MCF7 breast): 45.8 µM | TGI (MDA-MB-231 breast): > 100 µM | TGI (MDA-MB-435): 50.1 µM | TGI (MDA-N): 36.5 µM | TGI (MOLT-4 leukemia): > 100 µM | TGI (NCI-H226 lung): > 100 µM | TGI (NCI-H23 lung): > 100 µM | TGI (NCI-H460 lung): > 100 µM | TGI (NCI-H522 lung): > 100 µM | TGI (NCI/ADR-RES ovarian): > 100 µM | TGI (OVCAR-3 ovarian): > 100 µM | TGI (OVCAR-4 ovarian): > 100 µM | TGI (OVCAR-5 ovarian): > 100 µM | TGI (OVCAR-8 ovarian): > 100 µM | TGI (PC-3 prostate): > 100 µM | TGI (RPMI-8226 leukemia): > 100 µM | TGI (RXF 393 renal): > 100 µM | TGI (SF-268 CNS): > 100 µM | TGI (SF-295 CNS): > 100 µM | TGI (SF-539 CNS): > 100 µM | TGI (SK-MEL-2 melanoma): > 100 µM | TGI (SK-MEL-28 melanoma): > 100 µM | TGI (SK-MEL-5 melanoma): > 100 µM | TGI (SK-OV-3 ovarian): > 100 µM | TGI (SN12C renal): > 100 µM | TGI (SNB-19 CNS): > 100 µM | TGI (SR leukemia): 82.3 µM | TGI (T-47D breast): > 100 µM | TGI (TK-10 renal): > 100 µM | TGI (U251 CNS): > 100 µM | TGI (UACC-257 melanoma): > 100 µM | TGI (UACC-62 melanoma): > 100 µM | TGI (UO-31 renal): > 100 µM
